Source: patent US5908832A, “Peptide analog” (University of Houston - Clearlake, priority 1991, dated 1999)

Key:
specific NPFF receptors = conditions: spinal cord membranes; cited from earlier work
[1] = system: analgesic effects of morphine; conditions: in vivo; cited from earlier work
morphine-dependent rats [2] = assay: Naloxone-precipitated abstinence in morphine-dependent rats; type: in vivo, Sprague-Dawley rats
Method: Each rat was stereotaxically cannulated in the third ventricle under equithesin anesthesia. Cannula placements were subsequently confirmed by injection of methylene blue dye.
Drugs for third ventricle injection were dissolved in isotonic saline.
Following the rats way infusion period, rats were randomly divided into two treatment groups of seven rats each. Each rat received a third ventricular injection of either 600 ng daY8Ra in 30 μl saline or saline alone. Twenty-eight minutes after conclusion of the above injections, all rats were challenged by 10 μg naloxone HCl in 30 μl saline i.c.v.
Each rat was subsequently observed for 20 minutes, commencing with the onset of naloxone challenge.

morphine-dependent rats [3] = conditions: 2 μg i.c.v.; cited from earlier work
opiate-naive rats = conditions: 15 μg i.c.v.; cited from earlier work

Structure (SMILES): CC(C)C[C@H](NC(=O)[C@@H](N)Cc1ccccc1)C(=O)N[C@@H](Cc1ccccc1)C(=O)N[C@@H](CCC(N)=O)C(=O)N1CCC[C@H]1C(=O)N[C@@H](CCC(N)=O)C(=O)N[C@@H](CCCNC(=N)N)C(=O)N[C@@H](Cc1ccccc1)C(N)=O [NPFF, Phe-Leu-Phe-Gln-Pro-Gln-Arg-Phe-amide]
- affinity of the 125I-Y8Fa binding site (specific NPFF receptors): high affinity
- effect on analgesic effects of morphine and certain endogenous opioid peptides [1]: potently antagonizes
- abstinence syndrome after naloxone challenge vs saline pretreatment (one-way ANOVA) (morphine-dependent rats [2]; 600 ng i.c.v. pretreatment, 10 μg naloxone HCl i.c.v., Example III): no significant differences among groups
- abstinence signs following the peptide injection itself (total frequency, M±SEM) (morphine-dependent rats [2]; morphine-dependent rats, 600 ng i.c.v., observed 14 minutes from onset of injection, before naloxone): 3.67±0.99
- precipitation of opiate abstinence syndrome (morphine-dependent rats [3]): precipitates opiate abstinence syndrome
- induction of quasi-morphine-abstinence syndrome (QMAS) (opiate-naive rats): induces a quasi-morphine-abstinence syndrome
